One assay concerns DLD-1 cells. The assay is described as follows: Inhibition of proliferation, DLD-1 BRCA2 wt control (Cell Titre Glo 3D). It counts as cell-based. Particulars: for IC50: Homo sapiens; for POLQ PD Prolif Lumin: DLD-1 BRCA2 wt control proliferation. Put shortly:
(§1)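 Luminescent Cell Titre Glo 3D readout, taken on day 12 for homologous-recombination-deficient DLD-1 BRCA2−/− and day 7 for the wild-type control, after compound refresh on day 6. Compounds spanned 10 μM to 0.51 nM in three-fold steps; IC50 defined as 50% reduction of average maximum signal.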

A further assay has as its system DLD-1 BRCA2−/− cells. In words: Homologous recombination synthetic lethal inhibition of proliferation, DLD-1 BRCA2-/- (Cell Titre Glo 3D). It counts as cell-based. The following applies: for IC50: Homo sapiens; for POLQ PD Prolif Lumin: DLD-1 BRCA2-/- proliferation. Put shortly:
as §1

[1] abbreviates: DLD-1, DLD1 BRCA2 wt, mean, read-out: POLQ PD Prolif Lumin DLD1 mean pIC50 (converted).
Where [2] appears, read: DLD-1, DLD-1 BRCA2 −/−, mean, read-out: POLQ PD Prolif Lumin BRCA2 −/− mean pIC50 (converted).
The mark [3] stands for this setting: DLD-1, 168 h, DLD-1 BRCA2 wt cells, 7 days, read-out: POLQ PD Prolif Lumin DLD1 mean pIC50 (converted).
Where [4] appears, read: DLD-1, 288 h, DLD-1 BRCA2−/− cells, 12 days, read-out: POLQ PD Prolif Lumin BRCA2 −/− mean pIC50 (converted).
The mark [5] stands for this setting: DLD-1, DLD-1 BRCA2 wt control proliferation, column head only partly shown, read-out: POLQ PD Prolif Lumin (converted).
Setting [6] is: DLD-1, DLD-1 BRCA2-/- proliferation, column head only partly shown, read-out: POLQ PD Prolif Lumin (converted).
The mark [7] stands for this setting: DLD-1, second proliferation column (c6), taken as DLD-1 BRCA2 wt, read-out: POLQ PD Prolif Lumin (converted).
Where [8] appears, read: DLD-1, first proliferation column (c5), taken as DLD-1 BRCA2-/-, read-out: POLQ PD Prolif Lumin (converted).
[9] abbreviates: DLD-1, 168 h, DLD-1 (BRCA2 wt control), 7 days, Cell Titre Glo 3D, read-out: POLQ PD Prolif Lumin DLD1 Mean pIC50 (converted).
[10] abbreviates: DLD-1, 288 h, DLD-1 BRCA2−/−, 12 days, Cell Titre Glo 3D, read-out: POLQ PD Prolif Lumin BRCA2 −/− Mean pIC50 (converted).

Where two headings read alike, the source gives them in different places.

As to `COc1ccc(Cl)cc1Cn1c(-c2ccc(CCCC(C)C(=O)O)cc2Cl)nc2c(OC3(C)CC3)ncnc21` (racemic) [Example U56, 5-(3-chloro-4-(9-(5-chloro-2-methoxybenzyl)-6-(1-methylcyclopropoxy)-9H-purin-8-yl)phenyl)-2-methylpentanoic acid], the figures for the IC50 with DLD-1 cells (setting [1]) and with DLD-1 BRCA2−/− cells (setting [2]) were over 10 µM and 0.126 µM, respectively.
For the compound `COc1ccc(Cl)c(F)c1Cn1c(-c2ccc(OCCC(C)C(=O)O)cc2Cl)nc2c(OC3(C)CC3)ncnc21` (racemic) [Example U57, 4-(3-chloro-4-(9-(3-chloro-2-fluoro-6-methoxybenzyl)-6-(1-methylcyclopropoxy)-9H-purin-8-yl)phenoxy)-2-methylbutanoic acid], the IC50 was over 10 µM with DLD-1 cells (setting [1]) and 0.126 µM in the assay on DLD-1 BRCA2−/− cells (setting [2]).
On to `CC(C)Oc1ccc2c(c1)nc(-c1ccc(OCCC3CCCN3C)cc1Cl)n2Cc1ccccc1` (single isomer, unassigned) [Example A8, 1-benzyl-2-(2-chloro-4-(2-(1-methylpyrrolidin-2-yl)ethoxy)phenyl)-5-isopropoxy-1H-benzo[d]imidazole], for which the IC50 in the assay with DLD-1 cells (setting [3]) was 0.501 µM; in the assay with DLD-1 BRCA2−/− cells (setting [4]), 0.126 µM.
`CC(C)Oc1ccc2c(c1)nc(-c1ccc(OCCC3CCCN3C)cc1Cl)n2Cc1ccccc1` (single isomer, unassigned) [Example A9, 1-benzyl-2-(2-chloro-4-(2-(1-methylpyrrolidin-2-yl)ethoxy)phenyl)-5-isopropoxy-1H-benzo[d]imidazole]: the “POLQ PD Prolif Lumin DLD1 mean pIC50” value with DLD-1 cells (DLD-1 BRCA2 wt cells, 7 days) is given as 6.3. Besides, the “POLQ PD Prolif Lumin BRCA2 −/− mean pIC50” value in the assay with DLD-1 BRCA2−/− cells (DLD-1 BRCA2−/− cells, 12 days) was found to be 6.7.
Regarding `CC(C)Oc1ccc2c(c1)nc(-c1ccc(OC3CCCN(C)CC3)cc1Cl)n2Cc1ccccc1` (single isomer, unassigned) [Example A10, 1-benzyl-2-(2-chloro-4-((1-methylazepan-4-yl)oxy)phenyl)-5-isopropoxy-1H-benzo[d]imidazole], the IC50 in the assay with DLD-1 cells (setting [3]) is 2.51 µM; in the assay with DLD-1 BRCA2−/− cells (setting [4]), 0.794 µM.
As for `CC(C)Oc1ccc2c(c1)nc(-c1ccc(OC3CCCN(C)CC3)cc1Cl)n2Cc1ccccc1` (single isomer, unassigned) [Example A11, 1-benzyl-2-(2-chloro-4-((1-methylazepan-4-yl)oxy)phenyl)-5-isopropoxy-1H-benzo[d]imidazole], the “POLQ PD Prolif Lumin DLD1 mean pIC50” value in the assay with DLD-1 cells (DLD-1 BRCA2 wt cells, 7 days) worked out at 5.8. Moreover, the “POLQ PD Prolif Lumin BRCA2 −/− mean pIC50” value with DLD-1 BRCA2−/− cells (DLD-1 BRCA2−/− cells, 12 days) was 6.1.
As to `CN1CCCC1CCOc1ccc(-c2nc3c(OC4(C)CC4)ncnc3n2Cc2ccccc2)c(Cl)c1` (single isomer, unassigned) [Example D3, 9-benzyl-8-(2-chloro-4-(2-(1-methylpyrrolidin-2-yl)ethoxy)phenyl)-6-(1-methylcyclopropoxy)-9H-purine], the “POLQ PD Prolif Lumin DLD1 mean pIC50” value in the assay on DLD-1 cells (DLD-1 BRCA2 wt cells, 7 days) is 5.7. Besides, the IC50 in the assay on DLD-1 BRCA2−/− cells (setting [4]) was 0.0631 µM.
With `CN1CCCC1CCOc1ccc(-c2nc3c(OC4(C)CC4)ncnc3n2Cc2ccccc2)c(Cl)c1` (single isomer, unassigned) [Example D4, 9-benzyl-8-(2-chloro-4-(2-(1-methylpyrrolidin-2-yl)ethoxy)phenyl)-6-(1-methylcyclopropoxy)-9H-purine], in the assay with DLD-1 cells (DLD-1 BRCA2 wt cells, 7 days), the “POLQ PD Prolif Lumin DLD1 mean pIC50” value was found to be 6.2. For the same compound, in the assay on DLD-1 BRCA2−/− cells (DLD-1 BRCA2−/− cells, 12 days), the “POLQ PD Prolif Lumin BRCA2 −/− mean pIC50” value is listed as 7.3.
Turning to `CN1CCCC(Oc2ccc(-c3nc4c(OC5(C)CC5)ncnc4n3Cc3ccccc3)c(Cl)c2)CC1` (single isomer, unassigned) [Example D13, 9-benzyl-8-(2-chloro-4-((1-methylazepan-4-yl)oxy)phenyl)-6-(1-methylcyclopropoxy)-9H-purine], the results for the IC50 with DLD-1 cells (setting [3]) and in the assay on DLD-1 BRCA2−/− cells (setting [4]) were 3.98 µM and 0.126 µM, respectively.
`CN1CCCC(Oc2ccc(-c3nc4c(OC5(C)CC5)ncnc4n3Cc3ccccc3)c(Cl)c2)CC1` (single isomer, unassigned) [Example D14, 9-benzyl-8-(2-chloro-4-((1-methylazepan-4-yl)oxy)phenyl)-6-(1-methylcyclopropoxy)-9H-purine]: the “POLQ PD Prolif Lumin DLD1 mean pIC50” value in the assay with DLD-1 cells (DLD-1 BRCA2 wt cells, 7 days) is listed as 5.4. In the assay with DLD-1 BRCA2−/− cells (DLD-1 BRCA2−/− cells, 12 days), the “POLQ PD Prolif Lumin BRCA2 −/− mean pIC50” value was determined as 7.0.
With `CC(Cc1ccccn1)n1c(-c2ccc(OCCN3CCNCC3)cc2Cl)nc2c(OC3(C)CC3)ncnc21` (single isomer, unassigned) [Example S8, 8-(2-chloro-4-(2-(piperazin-1-yl)ethoxy)phenyl)-6-(1-methylcyclopropoxy)-9-(1-(pyridin-2-yl)propan-2-yl)-9H-purine], the IC50 in the assay on DLD-1 cells (setting [3]) was over 10 µM. In the assay on DLD-1 BRCA2−/− cells (DLD-1 BRCA2−/− cells, 12 days), the “POLQ PD Prolif Lumin BRCA2 −/− mean pIC50” value is on record as 5.0.
`Cc1cnc(Cn2c(-c3ccc(OC4CCCNCC4)cc3Cl)nc3c(OC4(C)CC4)ncnc32)s1` (single isomer, unassigned) [Example T242, 2-((8-(4-(azepan-4-yloxy)-2-chlorophenyl)-6-(1-methylcyclopropoxy)-9H-purin-9-yl)methyl)-5-methylthiazole]: the IC50 in the assay on DLD-1 cells (setting [5]) is over 10 µM; in the assay with DLD-1 BRCA2−/− cells (setting [6]) it was 0.794 µM.
For `Cc1cnc(Cn2c(-c3ccc(OC4CCCNCC4)cc3Cl)nc3c(OC4(C)CC4)ncnc32)s1` (single isomer, unassigned) [Example T243, 2-((8-(4-(azepan-4-yloxy)-2-chlorophenyl)-6-(1-methylcyclopropoxy)-9H-purin-9-yl)methyl)-5-methylthiazole], the entries for the “POLQ PD Prolif Lumin” value in the assay with DLD-1 cells (column head only partly shown) and with DLD-1 BRCA2−/− cells (column head only partly shown) were under 5.0 and 6.3, respectively.
In the case of `CC(COc1ccc(-c2nc3c(OC4(C)CC4)ncnc3n2Cc2cccc(Cl)c2)c(Cl)c1)CC(=O)O` (single isomer, unassigned) [Example T294, 4-(3-chloro-4-(9-(3-chlorobenzyl)-6-(1-methylcyclopropoxy)-9H-purin-8-yl)phenoxy)-3-methylbutanoic acid], the IC50 in the assay with DLD-1 cells (setting [5]) was over 10 µM; in the assay on DLD-1 BRCA2−/− cells (setting [6]), 0.158 µM.
On to `CC(COc1ccc(-c2nc3c(OC4(C)CC4)ncnc3n2Cc2cccc(Cl)c2)c(Cl)c1)CC(=O)O` (single isomer, unassigned) [Example T295, 4-(3-chloro-4-(9-(3-chlorobenzyl)-6-(1-methylcyclopropoxy)-9H-purin-8-yl)phenoxy)-3-methylbutanoic acid], for which the “POLQ PD Prolif Lumin” value is on record as under 5.0 in the assay on DLD-1 cells (column head only partly shown) and 6.9 with DLD-1 BRCA2−/− cells (column head only partly shown).
For `CC(COc1cccc(-c2nc3c(OC4(C)CC4)ncnc3n2Cc2cccc(Cl)c2)c1Cl)CC(=O)O` (single isomer, unassigned) [Example T299, 4-(2-chloro-3-(9-(3-chlorobenzyl)-6-(1-methylcyclopropoxy)-9H-purin-8-yl)phenoxy)-3-methylbutanoic acid], the IC50 with DLD-1 cells (setting [7]) was over 10 µM; with DLD-1 BRCA2−/− cells (setting [8]), 0.0794 µM.
Regarding `Cc1cnc(Cn2c(-c3ccc(OC4CCCN(C)CC4)cc3Cl)nc3c(OC4(C)CC4)ncnc32)s1` (single isomer, unassigned) [Example T389, 2-((8-(2-chloro-4-((1-methylazepan-4-yl)oxy)phenyl)-6-(1-methylcyclopropoxy)-9H-purin-9-yl)methyl)-5-methylthiazole], the values for the IC50 in the assay with DLD-1 cells (setting [7]) and in the assay on DLD-1 BRCA2−/− cells (setting [8]) were over 10 µM and 0.316 µM, respectively.
On to `COc1ccc(F)cc1Cn1c(-c2cccc(OCC(C)CC(=O)O)c2Cl)nc2c(OC3(C)CC3)ncnc21` (single isomer, unassigned) [Example U77, 4-(2-chloro-3-(9-(5-fluoro-2-methoxybenzyl)-6-(1-methylcyclopropoxy)-9H-purin-8-yl)phenoxy)-3-methylbutanoic acid], for which the IC50 in the assay with DLD-1 cells (setting [1]) was over 10 µM; with DLD-1 BRCA2−/− cells (setting [2]) it was 0.00794 µM.
As to `C[C@H](CCOc1ccc(-c2nc3c(OC4(C)CC4)ncnc3n2Cc2cccc(Cl)c2)c(Cl)c1)C(=O)O` (single isomer, unassigned; isomer 1) [Example 34, 4-(3-Chloro-4-(9-(3-chlorobenzyl)-6-(1-methylcyclopropoxy)-9H-purin-8-yl)phenoxy)-2-methylbutanoic acid (Isomer 1)], the IC50 with DLD-1 cells (setting [9]) is over 10 µM; with DLD-1 BRCA2−/− cells (setting [10]), 0.2 µM.
For `COc1ccc(Cl)cc1Cn1c(-c2cccc(OC[C@@H](C)CC(=O)O)c2Cl)nc2c(OC3(C)CC3)ncnc21` (single isomer, unassigned; isomer 1) [Example 50, 4-(2-Chloro-3-(9-(5-chloro-2-methoxybenzyl)-6-(1-methylcyclopropoxy)-9H-purin-8-yl)phenoxy)-3-methylbutanoic acid (isomer 1)], in that order: over 10 µM and 0.00631 µM.
As for `CC(c1cc(Cl)ccn1)n1c(-c2ccc(OCCN3CCNCC3)cc2Cl)nc2c(OC3(C)CC3)ncnc21` (single isomer, unassigned; isomer 1) [Example S6, 8-(2-chloro-4-(2-(piperazin-1-yl)ethoxy)phenyl)-9-(1-(4-chloropyridin-2-yl)ethyl)-6-(1-methylcyclopropoxy)-9H-purine (Isomer 1)], the “POLQ PD Prolif Lumin DLD1 mean pIC50” value in the assay with DLD-1 cells (DLD-1 BRCA2 wt cells, 7 days) is under 5.0. In addition, the “POLQ PD Prolif Lumin BRCA2 −/− mean pIC50” value with DLD-1 BRCA2−/− cells (DLD-1 BRCA2−/− cells, 12 days) was found to be 6.5.

These data come from patent US20250195530A1, “POLQ INHIBITORS” (ASTRAZENECA AB, priority 2022, published 2025).
